Reference: the NIST ThermoML archive (doi:10.1016/j.jct.2014.05.013)
± gives the expanded uncertainty stated by the source. One block for each compound: values may come before it.

Assays:
[1] = 100 kPa, Liquid, Vibrating tube method
[2] = wn = mass fraction of the nth substance listed; details: 100 kPa, Liquid, Vibrating tube method
[3] = refractive index (Na D-line) (dimensionless); wn = mass fraction of the nth substance listed; details: 100 kPa, Liquid, Standard Abbe refractometry

- mass density ([1]; 288.15 K): 1007.94 ± 1 kg/m3
- mass density ([1]; 298.15 K): 999.25 ± 1 kg/m3
- mass density ([1]; 308.15 K): 990.63 ± 1 kg/m3
Structure (SMILES): CNC=O [N-methylformamide]

- mass density ([2]; 288.15 K, w1 = 0.2): 1010.26 ± 1 kg/m3
- mass density ([2]; 288.15 K, w1 = 0.4): 1019.56 ± 1 kg/m3
- mass density ([2]; 288.15 K, w1 = 0.6): 1023.57 ± 1 kg/m3
- mass density ([2]; 288.15 K, w1 = 0.8): 1019.32 ± 1 kg/m3
- mass density ([2]; 288.15 K, w1 = 1): 1007.94 ± 1 kg/m3
- mass density ([2]; 298.15 K, w1 = 0.2): 1006.21 ± 1 kg/m3
- mass density ([2]; 298.15 K, w1 = 0.4): 1013.7 ± 1 kg/m3
- mass density ([2]; 298.15 K, w1 = 0.6): 1016.29 ± 1 kg/m3
- mass density ([2]; 298.15 K, w1 = 0.8): 1011.11 ± 1 kg/m3
- mass density ([2]; 298.15 K, w1 = 1): 999.25 ± 1 kg/m3
- mass density ([2]; 308.15 K, w1 = 0.2): 1001.56 ± 1 kg/m3
- mass density ([2]; 308.15 K, w1 = 0.4): 1007.51 ± 1 kg/m3
- mass density ([2]; 308.15 K, w1 = 0.6): 1008.9 ± 1 kg/m3
- mass density ([2]; 308.15 K, w1 = 0.8): 1003.04 ± 1 kg/m3
- mass density ([2]; 308.15 K, w1 = 1): 990.63 ± 1 kg/m3
Structure (SMILES): CNC=O [N-methylformamide] + O

- mass density ([2]; 288.15 K, w1 = 0.0005): 961.27 ± 1 kg/m3
- mass density ([2]; 298.15 K, w1 = 0.0008): 944.51 ± 1 kg/m3
- mass density ([2]; 308.15 K, w1 = 0.0016): 937.54 ± 1 kg/m3
- refractive index ([3]; 288.15 K, w1 = 0.0005): 1.43298 ± 0.00032
- refractive index ([3]; 298.15 K, w1 = 0.0008): 1.4292 ± 0.00032
- refractive index ([3]; 308.15 K, w1 = 0.0016): 1.42658 ± 0.00032
Structure (SMILES): [Cl-].[Cs+] [cesium chloride] + CN(C)C=O

- mass density ([2]; 288.15 K, w1 = 0.0585): 1054.35 ± 1.2 kg/m3
- mass density ([2]; 298.15 K, w1 = 0.0599): 1046.14 ± 1.2 kg/m3
- mass density ([2]; 308.15 K, w1 = 0.062): 1038.58 ± 1.2 kg/m3
- refractive index ([3]; 288.15 K, w1 = 0.0585): 1.43767 ± 0.00032
- refractive index ([3]; 298.15 K, w1 = 0.0599): 1.43465 ± 0.00032
- refractive index ([3]; 308.15 K, w1 = 0.062): 1.43161 ± 0.00032
Structure (SMILES): [Cl-].[Cs+] [cesium chloride] + CNC=O

- mass density ([2]; 288.15 K, w1 = 0.2292): 1359.39 ± 1.3 kg/m3
- mass density ([2]; 298.15 K, w1 = 0.2331): 1354.37 ± 1.3 kg/m3
- mass density ([2]; 308.15 K, w1 = 0.2412): 1354.14 ± 1.3 kg/m3
- refractive index ([3]; 288.15 K, w1 = 0.2292): 1.46286 ± 0.00032
- refractive index ([3]; 298.15 K, w1 = 0.2331): 1.46096 ± 0.00032
- refractive index ([3]; 308.15 K, w1 = 0.2412): 1.45811 ± 0.00032
Structure (SMILES): [Cl-].[Cs+] [cesium chloride] + NC=O

- mass density ([2]; 288.15 K, w1 = 0.646): 1894.15 ± 1.5 kg/m3
- mass density ([2]; 298.15 K, w1 = 0.6545): 1921.87 ± 1.5 kg/m3
- mass density ([2]; 308.15 K, w1 = 0.6666): 1947.03 ± 1.6 kg/m3
- refractive index ([3]; 288.15 K, w1 = 0.646): 1.41803 ± 0.00032
- refractive index ([3]; 298.15 K, w1 = 0.6545): 1.41971 ± 0.00032
- refractive index ([3]; 308.15 K, w1 = 0.6666): 1.42086 ± 0.00032
Structure (SMILES): [Cl-].[Cs+] [cesium chloride] + O

- mass density ([1]; 288.15 K): 953.53 ± 1 kg/m3
- mass density ([1]; 298.15 K): 943.89 ± 1 kg/m3
- mass density ([1]; 308.15 K): 934.39 ± 1 kg/m3
Structure (SMILES): CN(C)C=O [dimethylformamide]

- mass density ([2]; 288.15 K, w1 = 0.2): 1000.62 ± 1 kg/m3
- mass density ([2]; 288.15 K, w1 = 0.4): 1003.56 ± 1 kg/m3
- mass density ([2]; 288.15 K, w1 = 0.6): 1001.34 ± 1 kg/m3
- mass density ([2]; 288.15 K, w1 = 0.8): 986.63 ± 1 kg/m3
- mass density ([2]; 288.15 K, w1 = 1): 953.53 ± 1 kg/m3
- mass density ([2]; 298.15 K, w1 = 0.2): 996.32 ± 1 kg/m3
- mass density ([2]; 298.15 K, w1 = 0.4): 996.99 ± 1 kg/m3
- mass density ([2]; 298.15 K, w1 = 0.6): 992.97 ± 1 kg/m3
- mass density ([2]; 298.15 K, w1 = 0.8): 977.38 ± 1 kg/m3
- mass density ([2]; 298.15 K, w1 = 1): 943.89 ± 1 kg/m3
- mass density ([2]; 308.15 K, w1 = 0.2): 991.45 ± 1 kg/m3
- mass density ([2]; 308.15 K, w1 = 0.4): 990 ± 1 kg/m3
- mass density ([2]; 308.15 K, w1 = 0.6): 984.33 ± 1 kg/m3
- mass density ([2]; 308.15 K, w1 = 0.8): 968.07 ± 1 kg/m3
- mass density ([2]; 308.15 K, w1 = 1): 934.39 ± 1 kg/m3
Structure (SMILES): CN(C)C=O [dimethylformamide] + O

- mass density ([1]; 288.15 K): 1137.8 ± 1 kg/m3
- mass density ([1]; 298.15 K): 1129.18 ± 1 kg/m3
- mass density ([1]; 308.15 K): 1120.75 ± 1 kg/m3
Structure (SMILES): NC=O [formamide]

- mass density ([2]; 288.15 K, w1 = 0.2): 1030.04 ± 1 kg/m3
- mass density ([2]; 288.15 K, w1 = 0.4): 1058.41 ± 1 kg/m3
- mass density ([2]; 288.15 K, w1 = 0.6): 1085.67 ± 1 kg/m3
- mass density ([2]; 288.15 K, w1 = 0.8): 1111.83 ± 1 kg/m3
- mass density ([2]; 288.15 K, w1 = 1): 1137.8 ± 1 kg/m3
- mass density ([2]; 298.15 K, w1 = 0.2): 1025.59 ± 1 kg/m3
- mass density ([2]; 298.15 K, w1 = 0.4): 1052.51 ± 1 kg/m3
- mass density ([2]; 298.15 K, w1 = 0.6): 1078.6 ± 1 kg/m3
- mass density ([2]; 298.15 K, w1 = 0.8): 1103.81 ± 1 kg/m3
- mass density ([2]; 298.15 K, w1 = 1): 1129.18 ± 1 kg/m3
- mass density ([2]; 308.15 K, w1 = 0.2): 1020.7 ± 1 kg/m3
- mass density ([2]; 308.15 K, w1 = 0.4): 1046.35 ± 1 kg/m3
- mass density ([2]; 308.15 K, w1 = 0.6): 1071.43 ± 1 kg/m3
- mass density ([2]; 308.15 K, w1 = 0.8): 1095.93 ± 1 kg/m3
- mass density ([2]; 308.15 K, w1 = 1): 1120.75 ± 1 kg/m3
Structure (SMILES): NC=O [formamide] + O

- mass density ([1]; 288.15 K): 999 ± 1 kg/m3
Structure (SMILES): O [water]

- mass density ([2]; 288.15 K, w2 = 0): 999 ± 1 kg/m3
Structure (SMILES): O [water] + CN(C)C=O

- mass density ([2]; 288.15 K, w2 = 0): 999 ± 1 kg/m3
Structure (SMILES): O [water] + CNC=O

- mass density ([2]; 288.15 K, w2 = 0): 999 ± 1 kg/m3
Structure (SMILES): O [water] + NC=O
